Results: US20090325909A1, “Suppression of HIV replication and prevention and treatment of HIV” (The Johns Hopkins University, priority 2003, published 2009)
Counter-ions that a name gives are not always drawn.

How the values were obtained:
[1] = test system: SIV/DeltaB670 and SIV/17E-Fr; experiment: Incidence and severity of encephalitis in the accelerated SIV/macaque model; format: in vivo, pigtailed macaques (Macaca nemestrina); conditions: 4 mg/kg/day oral from 21 days p.i., euthanized at 84 days p.i., n = 5
Excerpt: Primate model for asymptomatic acute SIV infection. To identify events during acute and asymptomatic infection that lead to CNS disease a SIV/macaque model was developed in which the vast majority of infected animals develop CNS disease. […] These findings indicated the presence of mechanisms in the CNS that quell SIV replication and macrophage activation early after infection.
To identify events during acute and asymptomatic infection that lead to CNS disease in a SIV/macaque, a model was needed in which the vast majority of infected animals develop CNS disease. […] Virus replication and macrophage activation markers in the CNS declined in all macaques by 21 days p.i., despite high levee virus replication in the peripheral blood at this time. These findings indicated the presence of mechanisms in the CNS that quell SIV replication and macrophage activation early after infection.
Animals. Twenty-eight pigtailed macaques (Macaca nemestrina) were intravenously inoculated with a virus swarm, SIV/DeltaB670, and a cloned, neurovirulent virus, SIV/17Efr. Samples of brain tissue (basal ganglia and adjacent subcortical white matter) from macaques euthanized at 10 (n=6), 21′ (n=5), 56 (n=5) and 84 (n−=12) days p.i., and from uninfected control macaques (n=3 to 8) were fixed and embedded and […] sections were cut for immunohistochemical analysis of MAPKs. Of the macaques euthanized at 84 days p.i., one had no morphologic signs of encephalitis, two had mild encephalitis, five had moderate encephalitis and four had severe encephalitis based on morphologic criteria.
All macaques were euthanized at 84 days p.i. and their brains examined for pathological lesions typical of SIV encephalitis.

HIVIIIB = experiment: HIV replication in primary human PBL, p24 ELISA; format: cell-based
Excerpt: (§1) The HIV strains used in these experiments were HIVBaL (for macrophage infection) and HIVIIIB (for lymphocyte infection); the SIV strains were SIV/17E-Fr and SIV/DeltaB670 (both grow well in primary macrophages and lymphocytes.).
(§2) Virus replication was quantified over time by p24 (HIV) or p27 (SIV) ELISA.

HIVBaL = experiment: HIV replication in primary human macrophages, p24 ELISA; format: cell-based
Excerpt: as §1, §2

[2] = test system: SIV/17E-Fr and SIV/DeltaB670; experiment: SIV replication in primary macaque PBL, p27 ELISA; format: cell-based; conditions: pretreated with minocycline 24 hr prior to infection
Excerpt: as §1, §2

[3] = test system: SIV/17E-Fr and SIV/DeltaB670; experiment: SIV replication in primary macaque macrophages, p27; format: cell-based; conditions: for reduction in SIV p27 levels: SIV/DeltaB670-infected macrophages, 10 days p.i.
Excerpt: as §1, §2
Inhibition of SIV Virus in vitro. […]

[4] = pretreated with minocycline 24 hr prior to infection

CN(C)c1ccc(O)c2c1C[C@H]1C[C@H]3[C@H](N(C)C)C(O)=C(C(N)=O)C(=O)[C@@]3(O)C(O)=C1C2=O [Minocycline, [4S-(4a,4aa,5aa,12aa)-4,7-bis(dimethylamino)-1,4,4a,5,5a,6,11,12a-octahydro-3,10,12,12a-tetrahydroxy-1,11-dioxo-2-naphthacenecarboxamide]monohydrochloride]
Severity of Encephalitis: Mild (number of macaques) [1]: 2 | Severity of Encephalitis: Moderate (number of macaques) [1]: 0 | Severity of Encephalitis: None (number of macaques) [1]: 3 | Severity of Encephalitis: Severe (number of macaques) [1]: 0 | reduction in HIV p24 levels (HIVIIIB; HIV-infected lymphocytes, 40 μg/ml 24 hours prior to infection, 9 days p.i.): 92% | inhibition of HIV replication in PBL (HIVIIIB; [4]): 92% | reduction in HIV p24 levels (HIVBaL; HIV-infected macrophages, 40 μg/ml 24 hours prior to infection, 9 days p.i.): 99% | inhibition of HIV replication in macrophages (HIVBaL; [4]): 99% | inhibition of SIV replication in PBL [2]: 99% | inhibition of virus replication ([3]; SIV/17E-Fr-infected macrophages): 85% | reduction in SIV p27 levels ([3]; 10 μg/ml at the time of infection): 95% | reduction in SIV p27 levels ([3]; 40 μg/ml prior to infection): 98% | inhibition of SIV replication in macrophages [3, 4]: 85%
